From patent US20080194638A1, “BIOAVAILABLE FORMULATIONS OF HETEROCYCLIC COMPOUNDS” (Forest Laboratories Holdings Limited, priority 2007, published 2008)
Structures can show the parent of a compound that is named as a salt.

Test: Solubility of crystalline forms
Type: physicochemical
Excerpt: wherein R^1-R^4, P, X, Y, m, n and Ar are as defined therein. One such compound is N-(3,5-dichloropyrid-4-yl)-4-difluoromethoxy-8-methanesulfonamido-dibenzo[b,d]furan-1-carboxamide, the International nonproprietary name for which is oglemilast. The pharmacology and safety profiles for oglemilast have been described in, for example, Eur. Respir. J. (2004) 24 (Suppl 48): Abst 1391. Both US 2005/0027129 and International Publication No. WO 2006/040652 disclose methods for preparing oglemilast and pharmaceutically acceptable salts thereof, such as the sodium salt (see, e.g., Examples 30 and 31 of US publication No. 2005/0027129) and generically disclose formulations of oglemilast and the corresponding sodium salt. In these formulations, the active ingredient is present substantially in a crystalline form. […] In an attempt to increase the bioavailability of formulations containing, e.g., oglemilast, salt forms of the active ingredient have typically been used.

| SMILES | solubility |
| --- | --- |
| CS(=O)(=O)Nc1ccc2oc3c(OC(F)F)ccc(C(=O)Nc4c(Cl)cncc4Cl)c3c2c1 [crystalline oglemilast, N-(3,5-dichloropyrid-4-yl)-4-difluoromethoxy-8-methanesulfonamido-dibenzo[b,d]furan-1-carboxamide] | approximately 0.2 μg/mL |
| CS(=O)(=O)Nc1ccc2oc3c(OC(F)F)ccc(C(=O)Nc4c(Cl)cncc4Cl)c3c2c1 [crystalline sodium salt of oglemilast] | approximately 140 μg/mL |
